Tests used:
Cannabinoid receptor 1 = Cannabinoid receptor 1 (Homo sapiens, UniProt P21554); type: functional, cell-based
[1] = target: T1, 5-hydroxytryptamine receptor 3A (Homo sapiens, UniProt P46098); type: functional
T1 sequence (P46098 whole entry): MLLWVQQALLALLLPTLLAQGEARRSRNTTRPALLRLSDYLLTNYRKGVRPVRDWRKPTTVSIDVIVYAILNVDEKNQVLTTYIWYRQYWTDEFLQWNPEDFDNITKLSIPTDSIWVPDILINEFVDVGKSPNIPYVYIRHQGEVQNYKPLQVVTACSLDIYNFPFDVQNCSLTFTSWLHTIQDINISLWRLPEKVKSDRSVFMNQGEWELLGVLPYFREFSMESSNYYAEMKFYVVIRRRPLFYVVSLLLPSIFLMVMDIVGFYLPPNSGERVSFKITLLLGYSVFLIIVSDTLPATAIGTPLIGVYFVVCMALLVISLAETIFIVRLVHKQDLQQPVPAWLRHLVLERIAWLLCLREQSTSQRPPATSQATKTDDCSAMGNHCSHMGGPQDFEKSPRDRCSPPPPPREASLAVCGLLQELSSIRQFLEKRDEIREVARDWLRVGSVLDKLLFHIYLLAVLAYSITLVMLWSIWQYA

[2] = target: T2, Amine oxidase [flavin-containing] A (Homo sapiens, UniProt P21397); type: functional
T2 sequence (P21397 whole entry): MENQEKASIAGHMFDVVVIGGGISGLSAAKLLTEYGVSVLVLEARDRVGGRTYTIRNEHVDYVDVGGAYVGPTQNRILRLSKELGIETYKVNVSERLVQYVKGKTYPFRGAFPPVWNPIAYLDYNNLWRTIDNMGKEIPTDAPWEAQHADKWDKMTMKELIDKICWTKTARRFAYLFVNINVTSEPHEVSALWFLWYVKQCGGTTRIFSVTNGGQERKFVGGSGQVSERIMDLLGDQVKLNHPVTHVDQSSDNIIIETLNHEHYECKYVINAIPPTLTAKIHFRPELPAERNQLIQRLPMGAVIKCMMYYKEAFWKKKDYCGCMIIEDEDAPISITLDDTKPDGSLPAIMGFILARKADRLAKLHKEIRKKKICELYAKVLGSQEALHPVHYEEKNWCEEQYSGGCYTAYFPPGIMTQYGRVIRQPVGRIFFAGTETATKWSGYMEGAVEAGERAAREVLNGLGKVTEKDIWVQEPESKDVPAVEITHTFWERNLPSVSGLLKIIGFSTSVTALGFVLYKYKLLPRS

[3] = target: T3, Alpha-2B adrenergic receptor (Homo sapiens, UniProt P18089)
T3 sequence (P18089 whole entry): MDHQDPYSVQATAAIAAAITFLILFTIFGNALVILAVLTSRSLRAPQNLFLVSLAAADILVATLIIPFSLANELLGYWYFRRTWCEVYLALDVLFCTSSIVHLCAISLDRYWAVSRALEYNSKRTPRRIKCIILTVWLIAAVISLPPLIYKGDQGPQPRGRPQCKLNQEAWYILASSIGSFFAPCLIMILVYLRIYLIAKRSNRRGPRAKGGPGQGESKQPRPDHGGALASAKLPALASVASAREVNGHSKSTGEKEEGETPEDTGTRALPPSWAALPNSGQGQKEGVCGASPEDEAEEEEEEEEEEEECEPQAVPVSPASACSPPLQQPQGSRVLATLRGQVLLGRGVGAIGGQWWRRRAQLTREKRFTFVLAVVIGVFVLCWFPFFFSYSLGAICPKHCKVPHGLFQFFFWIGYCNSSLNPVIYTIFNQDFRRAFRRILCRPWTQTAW

[4] = target: Glutamate receptor ionotropic, NMDA 1 (Rattus norvegicus, UniProt P35439)
[5] = target: 3',5'-cyclic-AMP phosphodiesterase 4D (Homo sapiens, UniProt Q08499); type: functional
3',5'-cyclic-AMP phosphodiesterase 4D, sequence (Q08499 whole entry): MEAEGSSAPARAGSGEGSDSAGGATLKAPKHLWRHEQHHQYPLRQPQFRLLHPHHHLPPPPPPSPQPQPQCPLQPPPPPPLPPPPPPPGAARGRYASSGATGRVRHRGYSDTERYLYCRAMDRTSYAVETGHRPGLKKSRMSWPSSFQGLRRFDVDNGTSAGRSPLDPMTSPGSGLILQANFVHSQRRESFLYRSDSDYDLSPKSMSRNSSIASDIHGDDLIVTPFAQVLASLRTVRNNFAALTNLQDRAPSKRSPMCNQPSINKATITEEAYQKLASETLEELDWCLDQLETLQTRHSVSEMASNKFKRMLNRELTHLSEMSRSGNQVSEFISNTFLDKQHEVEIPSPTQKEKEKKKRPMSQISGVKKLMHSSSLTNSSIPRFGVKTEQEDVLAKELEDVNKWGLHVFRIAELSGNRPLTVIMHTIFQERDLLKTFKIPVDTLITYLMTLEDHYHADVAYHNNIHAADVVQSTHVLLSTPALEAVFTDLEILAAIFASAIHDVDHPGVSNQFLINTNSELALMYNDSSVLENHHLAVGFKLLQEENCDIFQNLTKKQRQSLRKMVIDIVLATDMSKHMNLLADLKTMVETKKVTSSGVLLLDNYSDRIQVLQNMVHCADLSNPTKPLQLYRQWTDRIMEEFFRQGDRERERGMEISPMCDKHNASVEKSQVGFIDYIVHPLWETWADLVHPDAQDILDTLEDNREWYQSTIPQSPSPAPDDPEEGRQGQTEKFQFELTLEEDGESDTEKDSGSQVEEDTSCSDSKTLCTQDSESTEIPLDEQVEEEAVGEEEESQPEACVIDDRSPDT

[6] = target: T4, Alpha-2A adrenergic receptor (Homo sapiens, UniProt P08913); type: functional, cell-based
T4 sequence (P08913 whole entry): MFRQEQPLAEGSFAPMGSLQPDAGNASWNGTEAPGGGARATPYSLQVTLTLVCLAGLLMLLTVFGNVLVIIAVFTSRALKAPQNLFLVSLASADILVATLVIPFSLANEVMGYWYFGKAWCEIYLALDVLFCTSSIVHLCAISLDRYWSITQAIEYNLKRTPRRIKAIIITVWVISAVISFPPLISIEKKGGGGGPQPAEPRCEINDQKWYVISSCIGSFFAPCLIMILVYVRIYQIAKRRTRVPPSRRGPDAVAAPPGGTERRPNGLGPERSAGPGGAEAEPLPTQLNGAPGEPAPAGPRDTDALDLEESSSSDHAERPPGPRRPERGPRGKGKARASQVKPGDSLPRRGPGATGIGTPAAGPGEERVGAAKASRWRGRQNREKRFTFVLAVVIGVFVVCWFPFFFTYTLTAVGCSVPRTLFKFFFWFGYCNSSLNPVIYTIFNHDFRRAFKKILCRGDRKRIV

[7] = target: Delta-type opioid receptor (Homo sapiens, UniProt P41143)
Delta-type opioid receptor, sequence (P41143 whole entry): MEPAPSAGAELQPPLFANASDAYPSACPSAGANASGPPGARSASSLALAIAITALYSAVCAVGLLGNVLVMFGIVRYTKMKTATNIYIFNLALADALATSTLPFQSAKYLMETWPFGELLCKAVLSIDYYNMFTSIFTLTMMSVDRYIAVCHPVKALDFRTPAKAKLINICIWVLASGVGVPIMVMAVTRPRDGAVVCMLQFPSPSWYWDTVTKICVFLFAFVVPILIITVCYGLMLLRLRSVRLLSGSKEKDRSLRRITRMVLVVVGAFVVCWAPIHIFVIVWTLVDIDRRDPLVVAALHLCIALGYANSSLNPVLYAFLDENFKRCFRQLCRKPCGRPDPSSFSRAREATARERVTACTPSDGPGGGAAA

Histamine H1 receptor = Histamine H1 receptor (Homo sapiens, UniProt P35367)
Histamine H1 receptor, sequence (P35367 whole entry): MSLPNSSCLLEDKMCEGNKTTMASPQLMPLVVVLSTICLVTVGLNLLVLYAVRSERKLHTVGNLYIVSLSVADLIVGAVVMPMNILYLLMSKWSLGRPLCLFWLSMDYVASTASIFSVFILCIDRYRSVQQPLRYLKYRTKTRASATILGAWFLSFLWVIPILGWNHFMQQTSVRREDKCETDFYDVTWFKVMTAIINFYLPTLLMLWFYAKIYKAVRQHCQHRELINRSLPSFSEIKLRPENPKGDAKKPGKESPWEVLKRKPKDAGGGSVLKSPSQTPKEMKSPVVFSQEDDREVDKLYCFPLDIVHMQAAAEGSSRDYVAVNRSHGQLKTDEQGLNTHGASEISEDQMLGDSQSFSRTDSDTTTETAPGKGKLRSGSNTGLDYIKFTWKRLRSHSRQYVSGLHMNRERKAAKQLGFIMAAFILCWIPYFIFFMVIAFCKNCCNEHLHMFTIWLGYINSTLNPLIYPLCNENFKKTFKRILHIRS

[8] = target: Kappa-type opioid receptor (Homo sapiens, UniProt P41145)
Kappa-type opioid receptor, sequence (P41145 whole entry): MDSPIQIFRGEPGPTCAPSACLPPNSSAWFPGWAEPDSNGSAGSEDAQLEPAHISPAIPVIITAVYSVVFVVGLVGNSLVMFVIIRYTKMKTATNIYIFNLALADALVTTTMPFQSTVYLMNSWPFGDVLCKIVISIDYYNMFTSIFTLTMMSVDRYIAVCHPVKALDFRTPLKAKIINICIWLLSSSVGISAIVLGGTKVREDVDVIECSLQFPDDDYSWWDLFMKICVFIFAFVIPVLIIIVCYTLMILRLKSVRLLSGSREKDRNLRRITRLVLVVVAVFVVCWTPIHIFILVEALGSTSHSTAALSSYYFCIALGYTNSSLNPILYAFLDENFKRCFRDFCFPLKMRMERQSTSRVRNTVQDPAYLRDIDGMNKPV

[9] = target: Sodium-dependent noradrenaline transporter (Homo sapiens, UniProt P23975)
Sodium-dependent noradrenaline transporter, sequence (P23975 whole entry): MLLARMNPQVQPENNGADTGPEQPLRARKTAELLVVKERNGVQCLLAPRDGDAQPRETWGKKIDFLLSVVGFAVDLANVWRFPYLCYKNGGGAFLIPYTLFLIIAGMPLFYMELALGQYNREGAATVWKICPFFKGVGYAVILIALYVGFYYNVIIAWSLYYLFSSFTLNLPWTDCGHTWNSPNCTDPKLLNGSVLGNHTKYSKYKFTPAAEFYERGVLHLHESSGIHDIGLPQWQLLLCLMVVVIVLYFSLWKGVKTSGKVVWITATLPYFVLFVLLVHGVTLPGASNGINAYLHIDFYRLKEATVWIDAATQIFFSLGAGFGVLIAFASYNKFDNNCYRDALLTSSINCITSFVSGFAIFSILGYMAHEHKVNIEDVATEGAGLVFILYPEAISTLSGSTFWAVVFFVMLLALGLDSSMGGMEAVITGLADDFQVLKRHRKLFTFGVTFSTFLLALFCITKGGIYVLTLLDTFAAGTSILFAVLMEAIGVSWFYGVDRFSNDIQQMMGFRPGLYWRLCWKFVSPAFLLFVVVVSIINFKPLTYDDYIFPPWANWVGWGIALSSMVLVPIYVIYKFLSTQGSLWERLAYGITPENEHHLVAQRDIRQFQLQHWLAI
Further: assay procedure not described here.

Cannabinoid receptor 1, sequence (P21554 whole entry): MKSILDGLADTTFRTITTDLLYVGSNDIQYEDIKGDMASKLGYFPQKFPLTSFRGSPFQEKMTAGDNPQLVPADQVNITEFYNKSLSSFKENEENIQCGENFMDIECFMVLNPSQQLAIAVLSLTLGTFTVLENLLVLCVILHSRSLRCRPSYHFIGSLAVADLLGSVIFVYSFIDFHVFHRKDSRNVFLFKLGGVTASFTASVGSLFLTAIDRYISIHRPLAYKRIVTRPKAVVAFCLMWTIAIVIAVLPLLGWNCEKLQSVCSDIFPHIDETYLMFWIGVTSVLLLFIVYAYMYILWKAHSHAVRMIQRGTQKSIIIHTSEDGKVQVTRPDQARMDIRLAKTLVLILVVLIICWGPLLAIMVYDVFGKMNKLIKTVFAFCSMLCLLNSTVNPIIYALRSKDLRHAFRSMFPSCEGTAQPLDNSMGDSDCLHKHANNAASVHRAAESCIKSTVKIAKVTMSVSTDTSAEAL

Row | SMILES | AC50 (Cannabinoid receptor 1) [µM] | AC50 [1] [µM] | AC50 [2] [µM] | AC50 [4] [µM] | AC50 [5] [µM] | AC50 [6] [µM] | AC50 [7] [µM] | AC50 [8] [µM] | AC50 [9] [µM] | AC50 [3] [µM] | AC50 (Histamine H1 receptor) [µM]
1 | CO/N=C(\C(=O)N[C@@H]1C(=O)N2C(C(=O)OCOC(=O)C(C)(C)C)=C(C)CS[C@H]12)c1csc(N)n1 | > 30 | > 30 | > 30 | > 30 | > 30 | > 30 | > 30 | > 30 | – | > 30 | > 30
2 | O=C(Cn1ccnc1[N+](=O)[O-])NCc1ccccc1 [BENZNIDAZOLE] | > 30 | > 30 | > 30 | > 30 | > 30 | > 30 | > 30 | 21 | > 30 | > 30 | > 30
3 | C[N+](C)(C)CCOC(N)=O [CARBAMOYLCHOLINE] | > 30 | > 10 | > 10 | > 10 | > 30 | > 30 | > 30 | > 10 | > 10 | – | –
4 | COCC1=C(C(=O)OC(C)OC(=O)OC(C)C)N2C(=O)[C@@H](NC(=O)/C(=N\OC)c3csc(N)n3)[C@H]2SC1 (stereo not given in full) [CEFPODOXIME PROXETIL] | > 30 | > 30 | > 30 | > 30 | 29 | > 30 | > 30 | > 30 | – | > 30 | > 30
5 | NS(=O)(=O)c1cc2c(cc1Cl)NC(CC1CCCC1)NS2(=O)=O (stereo not given) [CYCLOPENTHIAZIDE] | > 30 | > 30 | > 30 | > 30 | > 30 | > 30 | > 30 | > 30 | – | 17 | > 30
6 | NS(=O)(=O)c1cc(Cl)c(Cl)c(S(N)(=O)=O)c1 [DICHLORPHENAMIDE] | – | > 30 | > 10 | > 10 | > 30 | > 10 | > 30 | > 10 | > 10 | > 10 | > 10
7 | N/N=c1/cc2c(n[nH]1)CCN(C(=O)c1ccccc1)C2 [ENDRALAZINE] | > 30 | > 30 | > 30 | > 30 | > 30 | > 30 | > 30 | > 30 | – | > 30 | > 30
8 | CN1C(=O)N(C)C2C1N(C)C(=O)N2C (stereo not given) [MEBICAR] | > 30 | > 30 | > 30 | > 30 | > 30 | > 30 | > 30 | > 30 | – | > 30 | > 30
9 | CC(=O)O[C@]1(C(C)=O)CC[C@H]2[C@@H]3C[C@H](C)C4=CC(=O)CC[C@]4(C)[C@H]3CC[C@@]21C [MEDROXYPROGESTERONE ACETATE] | – | – | – | – | – | – | – | – | > 30 | – | –
10 | Nc1ccc(/N=N/c2ccccc2)c(N)n1 [PHENAZOPYRIDINE] | > 30 | 3.3 | > 30 | > 30 | 14 | > 30 | 2.9 | 3.3 | – | 3.2 | 4.5
11 | O=C(O)CCn1c2c(c3ccccc31)C[C@H](NS(=O)(=O)c1ccc(F)cc1)CC2 [RAMATROBAN] | – | > 30 | > 10 | > 10 | > 30 | > 10 | > 30 | > 10 | > 30 | > 10 | > 10

Second part, led by results:

Row | AC50 (Cannabinoid receptor 1) [µM] | AC50 [1] [µM] | AC50 [2] [µM] | AC50 [4] [µM] | AC50 [5] [µM] | AC50 [6] [µM] | AC50 [7] [µM] | AC50 [8] [µM] | AC50 [9] [µM] | SMILES | AC50 [3] [µM] | AC50 (Histamine H1 receptor) [µM]
12 | > 30 | > 30 | > 30 | > 30 | 7.8 | > 30 | > 30 | > 30 | > 30 | NS(=O)(=O)c1cc(-c2nnn[nH]2)c(NCc2cccs2)cc1Cl [AZOSEMIDE] | > 30 | > 30
13 | > 30 | > 30 | > 30 | > 30 | > 30 | > 30 | > 30 | – | > 30 | C[N+](C)(C)CC(=O)O [BETAINE] | > 30 | > 30
14 | > 30 | > 30 | > 30 | > 30 | > 30 | > 30 | > 30 | > 30 | > 30 | CCCC(=O)N1CCCN(c2nc(N)c3cc(OC)c(OC)cc3n2)CC1 [BUNAZOSIN] | 1.7 | > 30
15 | – | > 30 | > 10 | > 10 | > 30 | > 10 | > 30 | > 10 | > 10 | CN(C)[C@@H]1C(O)=C(C(N)=O)C(=O)[C@@]2(O)C(O)=C3C(=O)c4c(O)ccc(Cl)c4[C@@H](O)[C@H]3C[C@@H]12 [DEMECLOCYCLINE] | > 10 | > 10
16 | > 30 | > 30 | > 30 | – | > 30 | > 30 | > 30 | 1 | 2.5 | CC(C(O)c1ccc(O)cc1)N1CCC(Cc2ccccc2)CC1 (stereo not given) [IFENPRODIL] | 0.44 | 1
17 | 3.5 | > 30 | – | 25 | 28 | > 30 | 30 | 4.8 | 0.022 | CN(CCCN1c2ccccc2CCc2ccccc21)CC(=O)c1ccc(Cl)cc1 [LOFEPRAMINE] | 4 | 0.65
18 | > 30 | > 10 | > 10 | > 10 | > 10 | > 10 | > 10 | 1.99 | – | CN(C)CCCN1c2ccccc2Sc2ccccc21 [PROMAZINE] | – | –
19 | > 30 | > 30 | > 30 | > 30 | > 30 | > 30 | > 30 | > 30 | > 30 | O=P(O)(O)C(O)(Cc1cccnc1)P(=O)(O)O [RISEDRONIC ACID] | – | –
20 | – | > 30 | > 30 | > 10 | > 30 | > 10 | > 30 | > 10 | > 30 | CC(=O)N[C@H]1[C@H]([C@H](O)[C@H](O)CO)OC(C(=O)O)=C[C@@H]1N=C(N)N [ZANAMIVIR] | > 30 | > 30

From ChEMBL document CHEMBL5291721, “A preclinical secondary pharmacology resource illuminates target-adverse drug reaction associations of marketed drugs” (Nat Commun, 2023)
